Experimental data published in patent US20220298038A1, “A METHOD FOR DISRUPTING BIOFILMS IN WASTEWATER SYSTEMS” (GRENOF PTY LTD, priority 2019, published 2022).
Like-named read-outs stand apart in the source and are kept apart here.

Tests used:
[1] = cited from earlier work
[2] = 35° C. vs 15° C.; cited from earlier work
biofilm = assay: Biofilm disrupting activity compared with other oxidants
Method: Peracetic acid is typically more reactive at higher temperature (5 times more reactive at 35° C. than 15° C.). […] This is believed to be due to the nature and type of radicals formed upon cleavage of the peracetic acid peroxy bond.

[3] = cited from earlier work; remark: listed apart in the source
Catalase = conditions: cited from earlier work
[4] = cited from earlier work; remark: listed apart in the source
[5] = cited from earlier work; remark: listed apart in the source
[6] = test system: biofilm in a sewerage network; assay: Trial 2: H2S Odalog monitoring, manhole 200 m from Location 2; design: species or system sulphate reducing microbes and methanogenic archaea
[7] = standard oxidation potential (at pH 7)
[8] = Days 67-68, H2O2 330 mg/L after F1 dosing stopped

## O=[O+][O-] [Ozone]
[1]; pH 7
  Oxidation Potential: 2.07 eV

## CC(=O)OO [Peracetic Acid, peroxyacetic acid]
[2]
  reactivity at 35° C. relative to 15° C.: 5 times
[1]; pH 7
  Oxidation Potential: 1.81 eV
biofilm; vs hydrogen peroxide
  biofilm disrupting activity compared with hydrogen peroxide: stronger biofilm disrupting activity
biofilm; vs ozone
  biofilm disrupting activity compared with ozone: stronger biofilm disrupting activity
[3]; pH 4
  DT50 (25° C.): 46.7 h
[3]; pH 7
  DT50 (25° C.): 31.7 h
[3]; pH 9
  DT50 (25° C.): 3.6 h

## CCOO [ethyl hydroperoxide]
Catalase
  binding by catalase: rapidly
  catalysis by catalase: very inefficient

## CCCCCCCCCCCC(=O)OO [peroxydodecanoic]
[4]; pH 7
  solubility in water: very limited solubility

## CCCCCCCCCCCCCCCCCC(=O)OO [peroxyoctadecanoic]
[4]; pH 7
  solubility in water: very limited solubility

## [O][Cl+][O-] [Chlorine Dioxide]
[1]; pH 7
  Oxidation Potential: 0.95 eV

## S [Bisulphide (HS^−), Bisulphide]
[5]; pH 4
  Mole Fraction of Species (%): <1%
[5]; pH 5
  Mole Fraction of Species (%): ~1%
[5]; pH 5.5
  Mole Fraction of Species (%): 3%
[5]; pH 6.0
  Mole Fraction of Species (%): 9%
[5]; pH 6.5
  Mole Fraction of Species (%): 24%
[5]; pH 7.0
  Mole Fraction of Species (%): 50%
[5]; pH 7.5
  Mole Fraction of Species (%): 76%
[5]; pH 8.0
  Mole Fraction of Species (%): 91%
[5]; pH 8.5
  Mole Fraction of Species (%): 97%
[5]; pH 9.0
  Mole Fraction of Species (%): ~99%
[5]; pH 10.0
  Mole Fraction of Species (%): >99%

## CCCCCCCC(=O)OO [peroxyoctanoic acid]
[4]; (at pH 7)
  solubility in water: slightly soluble

## OCl [Sodium Hypochlorite]
[1]; [7]
  Oxidation Potential: 0.94 eV

## S [Hydrogen Sulphide (H2S), Hydrogen Sulphide]
[5]; pH 4
  Mole Fraction of Species (%): >99%
[5]; pH 5
  Mole Fraction of Species (%): ~99%
[5]; pH 5.5
  Mole Fraction of Species (%): 97%
[5]; pH 6.0
  Mole Fraction of Species (%): 91%
[5]; pH 6.5
  Mole Fraction of Species (%): 76%
[5]; pH 7.5
  Mole Fraction of Species (%): 24%
[5]; pH 8.0
  Mole Fraction of Species (%): 9%
[5]; pH 8.5
  Mole Fraction of Species (%): 3%
[5]; pH 9.0
  Mole Fraction of Species (%): ~1%
[5]; pH 10.0
  Mole Fraction of Species (%): <1%

## OO [Formulation H2O2, hydrogen peroxide]
[6]; [8]
  Avg. H2S: 0.3 ppm
  Peak H2S: 3 ppm
[6]; Days 69-81, H2O2 330 mg/L
  Avg. H2S: 2.8 ppm
  Peak H2S: 72 ppm
[6]; Days 82-86, H2O2 1,000 mg/L
  Avg. H2S: 3.7 ppm
  Peak H2S: 33 ppm
[1]; [7]
  Oxidation Potential: 1.78 eV
